For assay [1], the system named is cultured cotton ovules. Put plainly: In-vitro cotton ovule culture assay, phenotypic observation of fiber growth. The format is cell-based. The conditions noted are these: tested 1-NAA 1, 5, 10, 20 μM; GA3 0.1, 0.5, 1, 5 μM; Anacardic acid 2, 4, 8, 10 μM; 32° C. The text has this:
In the present invention, Anacardic acid may be dissolved in solvents selected from Dimethyl Sulfoxide (DMSO), Dimethyl formamide (DMFO), ethanol methanol, dichloromethane, ether, petroleum ether and ethyl acetate in a suitable concentration and mixed with 1Naphthaleneacetic Acid (1-NAA) and Gibberellic acid (GA3). For standardization of appropriate concentrations of phytohormones and Anacardic acid for better yield and quality of fiber, the formulation and its components were first tested on cultured ovules. Different concentrations of 1-NAA (1, 5, 10 and 20 μM) and GA3 (0.1, 0.5, 1 and 5 μM) were tested in ovule culture media and established that fiber growth was better at 5 μM 1-NAA and 0.5 μM GA3. Similarly, different concentrations of Anacardic acid (2, 4, 8 and 10 μM) were also used and established that fiber growth was better at 8 μM Anacardic acid in media in comparison to other concentrations.
Formulation was diluted with modified ½ MSL (Murasighe Skoog Liquid) media having 2% sucrose for a final concentration of Anacardic acid to 8 μM, 1-NAA to 5 μM and GA3 to 0.5 μM. This formulation was then used to culture cotton, ovules excised at −3 DPA (Day Post Anthesis) to study its effect on fiber initiation and at 0 DPA for fiber elongation. Ovules were examined (at 3 DPA for initiation and at 12 DPA for elongation stage) and photographed (Example 1). […] Cotton ovules cultured with the formulation (1-NAA+GA3+ Anacardic acid) in culture media show higher number of initiating fibers and better growth in comparison to control ovules (only phytohormones treated).
For standardization of appropriate concentrations of phytohormones and Anacardic acid for better yield and quality of fiber, the formulation and its components were first tested on cultured ovules. […]
Finally, in-vitro ovule culture experiment was performed with 8 μM Anacardic acid, 5 μM 1-NAA and 0.5 μM GA3 in media along with control sample having only 5 μM 1-NAA and 0.5 μM GA3. The phenotypic observations were recorded at 3 DPA for initiation stage and at 12 DPA for elongation stage (FIG. 1).

Assay [2] deals with cultured cotton ovules. Description: Ovule culture with different phytohormones with and without Anacardic acid. The conditions noted are these: 12 DPA; for growth in cultures having Anacardic acid with phytohormone: Anacardic acid added at 3 DPA, in comparison to control where only phytohormones were used; for Lignin content of ovules cultured with Anacardic acid and phytohormone: toluidine blue, in comparison to control wherein only phytohormones are used. It counts as cell-based. How it is done: To check the effect of the phytohormones on fiber development for better yield and quality of fibers, different phytohormones and their combinations were tested first tested on cultured ovules. Cotton buds and flowers at 1 DPA stage were plucked from the plants for the ovule culture. Ovaries were surface sterilized using 1% Mercuric chloride solution and washed three times with MQ water. Ovules were excised using sterilized fine forceps and brushes. Isolted ovules (3-5) were transferred to culture media with different 5 μM of 1-Naphthaleneacetic acid (1NAA), Indole-3-acetic acid (IAA), 2,4-Dichlorophenoxyacetic acid (2,4-D), Kinetin, Zeatin and 0.5 μM Gibberellic acid (GA3)along with untreated ovules (having no phytohormones) placed in 35mm tissue culture dishes in two sets. All the dishes were further places in incubators set at 32° C. In one set of dishes, Anacardic acid was added to 3 DPA stage, while the other set was used to control. It has been observed that at 12 DPA stage growth in cultures having Anacardic acid with phytohormones like 1-NAA, IAA, 2,4-D and GA3 at […] was better in comparison to the control conditions, where only phytohormones were used (FIG. 8). […] For the lignin qualification, ovules were boiled in distilled water with a drop of concentrated HCl to dissolve waxes and leave the fibers hydrophilic. After rinsing in distilled water, three ovules per sample were places in a 50 ml falcon tube and stained with 30 ml. of toluidine blue solution (0.018% toluidine blue, 0.016 M Na2HPO4, 0.01 M citric acid, pH 4.5) for 30 s. After staining, the ovules were rinsed thoroughly with distilled water and briefly laid on absorbent paper to remove excess water. Ovules were then returned to 50 ml falcon tubes and 50 ml of destaining solution comprising glacial acetic acid, ethanol and water (10:95:5) added. After vigorous shaking and destaining for at least 1 h, 200μl of the solution was pipetted in triplicate into 96-well flat bottom microtiter plates for measurement of absorbance at 624 nm in a plate reader.

SMILES strings stand for the structures.

For `O=C(O)Cc1cccc2ccccc12` [1-NAA, 1-Naphthaleneacetic acid], the “concentration at which fiber growth in ovule culture was better” value (from here on “concentration at which fiber growth”) in the assay with cultured cotton ovules [1] came to 5 µM. In addition, in the assay on cultured cotton ovules [2], the “growth in cultures having Anacardic acid with phytohormone” value (“growth in cultures having Anacardic acid” below) is “better”; the “Lignin content of ovules cultured with Anacardic acid and phytohormone” value (“Lignin content of ovules cultured” for short) was “higher”.

For `O=C(O)COc1ccc(Cl)cc1Cl` [2,4-D, 2,4-Dichlorophenoxyacetic acid], in the assay on cultured cotton ovules [2], the “growth in cultures having Anacardic acid” value is listed as “better”; the “Lignin content of ovules cultured” value is recorded as “higher”.

Regarding `CCCCCCCCCCCCCCCc1cccc(O)c1C(=O)O` [Anacardic acid], the “concentration at which fiber growth” value in the assay on cultured cotton ovules [1] was found to be 8 µM.

`C=C1C[C@]23C[C@@]1(O)CC[C@H]2[C@@]12C=C[C@H](O)[C@@](C)(C(=O)O1)[C@H]2[C@@H]3C(=O)O` [GA3, Gibberellic acid]: the “concentration at which fiber growth” value in the assay on cultured cotton ovules [1] turned out to be 0.5 µM. In the assay with cultured cotton ovules [2], the “growth in cultures having Anacardic acid” value was “better”; the “Lignin content of ovules cultured” value is reported as “higher”.

On to `O=C(O)Cc1c[nH]c2ccccc12` [IAA, Indole-3-acetic acid], for which, in the assay with cultured cotton ovules [2], the “growth in cultures having Anacardic acid” value is on record as “better”; the “Lignin content of ovules cultured” value was “higher”.

These data come from patent publication US10111427B2, “Formulation for improving the yield and quality of fiber in cotton plants” (Council of Scientific & Industrial Research, priority 2015, dated 2018).
